Measurements from patent publication US20240190855A1 (Relay Therapeutics, Inc., priority 2021, published 2024).

What follows are compounds tested against T1, CDK2/Cyclin E complex (Homo sapiens, UniProt P24941) (assay: CDK2/Cyclin E fluorescence-based microfluidic mobility shift assay (CDK2 Biochemical Caliper Assay)). Conditions: read-out: Biochemical CDK2/CyclinE Caliper IC50.
T1 construct: purchased Eurofins 14-475
Procedure: Compounds of the present disclosure were tested in a CDK2/Cyclin E fluorescence-based microfluidic mobility shift assay (PerkinElmer).
The active wild type CDK2/Cyclin E complex was purchased from Eurofins (14-475). Compound stocks were prepared in DMSO and were serially diluted into 11 concentrations by 3-fold dilution. […] Compounds were incubated in the presence of CDK2/Cyclin E complex and ATP for 30 minutes at room temperature. Catalytic reaction was initiated with the addition of 5 uL of a 4× peptide solution containing 6 uM fluorescently label substrate peptide, FL Peptide 18 (aa sequence 5-FAM-QSPKKG, PerkinElmer, 760362) in 1× reaction buffer.
The final reaction components were 0.1 nM CDK2/Cyclin E, 2000 uM ATP and 1.5 uM FL Peptide 18 and 1% DMSO. Reactions were incubated RT for 20 hr and terminated with 75 uL of a stopping solution containing 0.5 M EDTA. Samples were analyzed using a LabChip EZ reader (PerkinElmer).
In the case of `CC(C)NC(=O)O[C@H]1CC[C@@H](c2cc(Nc3nccn4nccc34)n[nH]2)C1` (single isomer, unassigned) [Example 139], the IC50 is reported as ≤ 0.1 µM. In the case of `Cc1cc(CC(=O)Nc2cc([C@H]3C[C@@H](Oc4nnccc4C(C)C)CO3)[nH]n2)on1` [Example 406], the IC50 is reported as ≤ 0.1 µM. In the case of `Cc1cc(CC(=O)Nc2cc([C@@H]3CC[C@H](Oc4cnccc4C)C3)[nH]n2)on1` (single isomer, unassigned) [Example 379], the IC50 is reported as 0.25 to 1 µM. Work on `COCc1cc(C(=O)Nc2cc([C@H]3C[C@H](COC(=O)NC(C)C)C3)[nH]n2)n(C)n1` [Example 461] yielded an IC50 of 1 to 100 µM. Compound `COCc1cc(C(=O)Nc2cc([C@H]3C[C@@H](COc4cccnc4)C3)[nH]n2)n(C)n1` [Example 561] has an IC50 of 1 to 100 µM. Work on `Cc1cc(CC(=O)Nc2cc([C@@H]3CC[C@H](Oc4ccccc4)C3)[nH]n2)on1` (single isomer, unassigned) [Example 350] yielded an IC50 of 1 to 100 µM. `Cn1ncc2c(Nc3cc([C@H]4C[C@@H](OC(=O)NC5(C)CC5)CO4)[nH]n3)nccc21` [Example 747] showed an IC50 of 0.25 to 1 µM. With `Cc1cc(CC(=O)Nc2cc(C3CCCCC3)[nH]n2)on1` [Example 48] the IC50 was 1 to 100 µM. `Cc1cc(CC(=O)Nc2cc([C@@H]3CC[C@H](N4CC5(CC5)NC4=O)C3)[nH]n2)on1` (single isomer, unassigned) [Example 338] was tested, and the IC50 was 0.25 to 1 µM. For `Cc1cc(CC(=O)Nc2cc([C@H]3CC[C@@H](n4cc(C)[nH]c4=O)C3)[nH]n2)on1` (single isomer, unassigned) [Example 92], the IC50 was 0.25 to 1 µM. `COCc1cc(C(=O)Nc2cc([C@@H]3CC[C@H](Cc4ncc(C)s4)C3)[nH]n2)n(C)n1` (single isomer, unassigned) [Example 555] was tested, and the IC50 was 0.25 to 1 µM. With `c1cc2ncsc2c(Nc2cc([C@H]3CC[C@@H](Oc4nscc4C4CC4)C3)[nH]n2)n1` (single isomer, unassigned) [Example 404] the IC50 was ≤ 0.1 µM. With `COCc1cc(C(=O)Nc2cc([C@H]3CC[C@@](C)(CC(=O)NC(C)C)C3)[nH]n2)n(C)n1` (single isomer, unassigned) [Example 419] the IC50 was 1 to 100 µM. For `Cc1cc(CC(=O)Nc2cc([C@H]3CC[C@@H](N4CC5(CC5)NC4=O)C3)[nH]n2)on1` (single isomer, unassigned) [Example 90], the IC50 was 0.25 to 1 µM. With `Cn1ncc2cnc(Nc3cc([C@H]4C[C@@H](OC(=O)NC5(C)CC5)CO4)[nH]n3)cc21` [Example 724] the IC50 was ≤ 0.1 µM. Compound `Cc1cc(CC(=O)Nc2cc([C@H]3CC[C@@H](Oc4cnccc4C)C3)[nH]n2)on1` (single isomer, unassigned) [Example 380] has an IC50 of 0.1 to 0.25 µM. `COCc1cc2c(Nc3cc([C@H]4C[C@@H](Oc5nn(C)cc5C(C)(C)C)CO4)[nH]n3)nccn2n1` [Example 783] gave an IC50 of 1 to 100 µM. `COCc1cc(C(=O)Nc2cc([C@H]3C[C@@H](COc4cn(C)nc4C(C)C)C3)[nH]n2)n(C)n1` [Example 623] showed an IC50 of 0.1 to 0.25 µM. `Cc1cc(CC(=O)Nc2cc([C@@H]3CC[C@H](OC(=O)CC(C)C)C3)[nH]n2)on1` (single isomer, unassigned) [Example 353] was tested, and the IC50 was ≤ 0.1 µM. `CC1(NC(=O)O[C@@H]2CO[C@H](c3cc(Nc4nccn5nc(COC(F)(F)F)cc45)n[nH]3)C2)CC1` [Example 922] was tested, and the IC50 was ≤ 0.1 µM. For `COCc1cc(C(=O)Nc2cc([C@H]3C[C@@H](OC(=O)NC4(C)CC4)CO3)[nH]n2)n(C(F)(F)F)n1` [Example 895], the IC50 was ≤ 0.1 µM. With `c1ccc(-c2ncnc(Nc3cc(C4CCCC4)[nH]n3)n2)cc1` [Example 871] the IC50 was 1 to 100 µM. `Cc1cc(CC(=O)Nc2cc([C@@H]3CC[C@H](NC(=O)c4ccccc4)C3)[nH]n2)on1` (single isomer, unassigned) [Example 132] showed an IC50 of 1 to 100 µM. Work on `COCc1cc(C(=O)Nc2cc(-c3csc4cnc(NC(C)C)nc34)[nH]n2)n(C)n1` [Example 337] yielded an IC50 of 1 to 100 µM. For `Cc1cc(CC(=O)Nc2cc([C@H]3C[C@H](COc4nscc4C4CC4)C3)[nH]n2)on1` [Example 369], the IC50 was 1 to 100 µM. For `COCc1cc2c(Nc3cc([C@H]4C[C@@H](OC(N)=O)CO4)[nH]n3)nccn2n1` [Example 659], the IC50 was 1 to 100 µM. For `COCc1cc2c(Nc3cc([C@H]4C[C@@H](OC(=O)NC56CC(F)(C5)C6)CO4)[nH]n3)nccn2n1` [Example 710], the IC50 was ≤ 0.1 µM. With `COCc1cc2c(Nc3cc([C@H]4C[C@@H](COc5[nH]ncc5C(C)C)C4)[nH]n3)nccn2n1` [Example 718] the IC50 was ≤ 0.1 µM. With `CCc1ccnnc1O[C@@H]1CC[C@H](c2cc(NC(=O)c3cc(COC)nn3C)n[nH]2)C1` (single isomer, unassigned) [Example 509] the IC50 was ≤ 0.1 µM. In the case of `COCc1nc2ccnc(Nc3cc([C@@H]4CC[C@H](Oc5nnccc5C(C)C)C4)[nH]n3)c2s1` (single isomer, unassigned) [Example 445], the IC50 is reported as ≤ 0.1 µM. With `COCc1cc2c(Nc3cc([C@H]4C[C@@H](OC(=O)NC(C)(C)C)CO4)[nH]n3)nccn2n1` (single isomer, unassigned) [Example 617] the IC50 was ≤ 0.1 µM. In the case of `COC12CC(NC(=O)O[C@@H]3CO[C@H](c4cc(NC(=O)c5cc(COC(F)(F)F)nn5C)n[nH]4)C3)(C1)C2` [Example 911], the IC50 is reported as ≤ 0.1 µM. For `COCc1cc2c(Nc3cc([C@H]4C[C@@H](OC(=O)NC(C)(C)COC)CO4)[nH]n3)nccn2n1` [Example 695], the IC50 was ≤ 0.1 µM. `CC(C)NC(=O)O[C@@H]1CC[C@H](c2cc(Nc3ncnc4ncsc34)n[nH]2)C1` [Example 425] was tested, and the IC50 was ≤ 0.1 µM. For `C#CC1CN(C(=O)O[C@@H]2CC[C@H](c3cc(NC(=O)Cc4cc(C)no4)n[nH]3)C2)C1` [Example 660], the IC50 was 0.1 to 0.25 µM. With `Cc1cc(CC(=O)Nc2cc([C@H]3CC[C@@H](Oc4cccnc4)C3)[nH]n2)on1` (single isomer, unassigned) [Example 339] the IC50 was 0.25 to 1 µM. For `COCc1cc(C(=O)Nc2cc([C@@H]3CC[C@H](Oc4nscc4C4CC4)C3)[nH]n2)n(C)n1` (single isomer, unassigned) [Example 413], the IC50 was ≤ 0.1 µM. For `CC(C)NC(=O)O[C@H]1CO[C@@H](c2cc(Nc3nccn4nc(CN5CCOCC5)cc34)n[nH]2)C1` [Example 669], the IC50 was ≤ 0.1 µM. In the case of `CC(C)c1nc(Nc2cc([C@H]3C[C@@H](OC(=O)NC4(C)CC4)CO3)[nH]n2)c2cc[nH]c2n1` [Example 744], the IC50 is reported as 0.1 to 0.25 µM. `c1cncc(O[C@@H]2CC[C@H](c3cc(Nc4ncnc5ncccc45)n[nH]3)C2)c1` (single isomer, unassigned) [Example 498] gave an IC50 of 1 to 100 µM. Compound `COCc1cc2c(Nc3cc([C@H]4C[C@@H](OC(=O)N5CC6CC(C6)C5)CO4)[nH]n3)nccn2n1` [Example 733] has an IC50 of 0.1 to 0.25 µM. `C#CC1(NC(=O)O[C@H]2CO[C@@H](c3cc(Nc4nccn5nc(COC)cc45)n[nH]3)C2)CC1` [Example 728] was tested, and the IC50 was ≤ 0.1 µM. Work on `COCc1cc2c(Nc3cc([C@H]4C[C@H](COC(=O)NC(C)C)C4)[nH]n3)nccn2n1` [Example 560] yielded an IC50 of 0.1 to 0.25 µM. `COCc1cc(C(=O)Nc2cc([C@H]3CC[C@@H](Oc4c(C)ccnc4C)C3)[nH]n2)n(C)n1` (single isomer, unassigned) [Example 479] gave an IC50 of 1 to 100 µM. `Cc1cc(CC(=O)Nc2cc([C@@H]3CC[C@H](n4cc(C(C)C)[nH]c4=O)C3)[nH]n2)on1` (single isomer, unassigned) [Example 378] gave an IC50 of 1 to 100 µM. `Cc1cc(CC(=O)Nc2cc([C@H]3C[C@@H](COc4nnccc4C(C)C)C3)[nH]n2)on1` [Example 431] was tested, and the IC50 was ≤ 0.1 µM. In the case of `COCc1cc2c(Nc3cc([C@H]4C[C@@H](OC(=O)N5[C@@H](C)CC[C@@H]5C)CO4)[nH]n3)nccn2n1` (single isomer, unassigned) [Example 581], the IC50 is reported as ≤ 0.1 µM. In the case of `COCc1cc(C(=O)Nc2cc([C@H]3C[C@@H]4[C@H](C3)[C@H]4C(=O)N(C)C)[nH]n2)n(C)n1` [Example 540], the IC50 is reported as 1 to 100 µM. In the case of `Cc1cc(CC(=O)Nc2cc([C@H]3CC[C@@H](Oc4cccnc4C)C3)[nH]n2)on1` (single isomer, unassigned) [Example 359], the IC50 is reported as 0.1 to 0.25 µM. Compound `Oc1cc(Nc2cc(C3CCCC3)[nH]n2)ncn1` [Example 876] has an IC50 of 1 to 100 µM. `COCc1cc2c(Nc3cc([C@H]4C[C@@H](OC(=O)N[C@H](C)C5COC5)CO4)[nH]n3)nccn2n1` [Example 711] showed an IC50 of 0.25 to 1 µM. Compound `COCCOc1ccnc(Nc2cc(C3CCCC3)[nH]n2)n1` [Example 811] has an IC50 of 1 to 100 µM. With `COCc1cc(C(=O)Nc2cc([C@H]3CC[C@H](c4cccc(C(C)C)n4)C3)[nH]n2)n(C)n1` (single isomer, unassigned) [Example 607] the IC50 was 1 to 100 µM. With `COCc1cc2c(Nc3cc([C@H]4C[C@@H](OC(=O)NC5CCC5)CO4)[nH]n3)nccn2n1` [Example 666] the IC50 was ≤ 0.1 µM. With `C[C@H](NC(=O)O[C@@H]1CO[C@H](c2cc(NC(=O)c3cc(COC(F)(F)F)nn3C)n[nH]2)C1)C1CC1` [Example 780] the IC50 was ≤ 0.1 µM. Compound `CC1(NC(=O)O[C@H]2CO[C@@H](c3cc(Nc4ccc5nccnc5n4)n[nH]3)C2)CC1` [Example 762] has an IC50 of 0.1 to 0.25 µM. Work on `Cc1cc(CC(=O)Nc2cc([C@@H]3CC[C@@H](O)C3)[nH]n2)on1` (single isomer, unassigned) [Example 376] yielded an IC50 of 1 to 100 µM. In the case of `CC(C)c1[nH]ncc1OC[C@H]1C[C@H](c2cc(Nc3nccn4nccc34)n[nH]2)C1` [Example 583], the IC50 is reported as 1 to 100 µM. Compound `Cc1cc(CC(=O)Nc2cc([C@H]3CC[C@H](CC(=O)O)C3)[nH]n2)on1` (single isomer, unassigned) [Example 343] has an IC50 of 1 to 100 µM. With `C[C@H]1CC[C@H](C)N1C(=O)O[C@@H]1CO[C@H](c2cc(Nc3ccc4c(c3)C(C)(C)NC4=O)n[nH]2)C1` (single isomer, unassigned) [Example 590] the IC50 was ≤ 0.1 µM. Work on `COCc1cc(C(=O)Nc2cc([C@@H]3CC[C@H](Oc4cc(C(C)C)cnn4)C3)[nH]n2)n(C)n1` (single isomer, unassigned) [Example 493] yielded an IC50 of 0.1 to 0.25 µM.
